Key:
[1] = molecular target: T1, Transient receptor potential cation channel subfamily A member 1 (Rattus norvegicus, UniProt Q6RI86); assay: Agonist activity at rat recombinant TRPA1 expressed in HEK293 cells assessed as increase in intracellular calcium accumulation by Fluo4-AM based assay; assay type: cell-based
[2] = molecular target: T2, Transient receptor potential cation channel subfamily A member 1 (Homo sapiens, UniProt O75762); assay: Antagonist activity at human recombinant TRPA1 transfected in HEK293T cells assessed as increase in Ca2+ influx by FLIPR calcium assay; assay type: cell-based
T2 sequence (O75762 whole entry): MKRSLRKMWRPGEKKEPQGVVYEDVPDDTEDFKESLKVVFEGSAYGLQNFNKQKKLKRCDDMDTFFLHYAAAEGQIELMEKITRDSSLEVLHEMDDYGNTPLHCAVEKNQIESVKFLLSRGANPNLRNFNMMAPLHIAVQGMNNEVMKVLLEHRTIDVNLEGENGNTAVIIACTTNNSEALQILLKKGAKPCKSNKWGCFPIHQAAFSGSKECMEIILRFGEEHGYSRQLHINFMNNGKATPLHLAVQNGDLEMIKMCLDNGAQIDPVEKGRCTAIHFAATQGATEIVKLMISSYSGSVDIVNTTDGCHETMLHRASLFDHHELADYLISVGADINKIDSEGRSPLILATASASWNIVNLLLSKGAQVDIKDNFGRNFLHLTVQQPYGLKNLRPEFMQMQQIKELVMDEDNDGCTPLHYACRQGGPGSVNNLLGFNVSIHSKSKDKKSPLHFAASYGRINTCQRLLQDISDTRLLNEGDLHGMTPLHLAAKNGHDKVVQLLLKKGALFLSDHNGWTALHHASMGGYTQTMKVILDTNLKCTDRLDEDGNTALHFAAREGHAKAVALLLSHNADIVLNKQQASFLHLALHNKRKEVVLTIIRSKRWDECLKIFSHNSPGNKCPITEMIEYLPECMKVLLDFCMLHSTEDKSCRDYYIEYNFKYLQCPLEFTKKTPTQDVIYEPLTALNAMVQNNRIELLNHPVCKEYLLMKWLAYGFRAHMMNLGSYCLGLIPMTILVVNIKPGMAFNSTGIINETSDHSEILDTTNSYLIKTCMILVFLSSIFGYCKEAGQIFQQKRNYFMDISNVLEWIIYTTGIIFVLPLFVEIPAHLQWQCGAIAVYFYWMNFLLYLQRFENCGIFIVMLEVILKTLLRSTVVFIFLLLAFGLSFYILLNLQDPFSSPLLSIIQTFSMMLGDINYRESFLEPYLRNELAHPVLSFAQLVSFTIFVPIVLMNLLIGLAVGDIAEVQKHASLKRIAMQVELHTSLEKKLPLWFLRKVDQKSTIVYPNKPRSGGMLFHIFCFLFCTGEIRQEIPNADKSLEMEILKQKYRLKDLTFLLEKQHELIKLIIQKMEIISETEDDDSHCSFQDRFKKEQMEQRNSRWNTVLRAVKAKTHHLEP

[3] = molecular target: T3, Transient receptor potential cation channel subfamily V member 1 (Homo sapiens, UniProt Q8NER1); assay: Inhibition of TRPV1 (unknown origin)
T3 sequence (Q8NER1 whole entry): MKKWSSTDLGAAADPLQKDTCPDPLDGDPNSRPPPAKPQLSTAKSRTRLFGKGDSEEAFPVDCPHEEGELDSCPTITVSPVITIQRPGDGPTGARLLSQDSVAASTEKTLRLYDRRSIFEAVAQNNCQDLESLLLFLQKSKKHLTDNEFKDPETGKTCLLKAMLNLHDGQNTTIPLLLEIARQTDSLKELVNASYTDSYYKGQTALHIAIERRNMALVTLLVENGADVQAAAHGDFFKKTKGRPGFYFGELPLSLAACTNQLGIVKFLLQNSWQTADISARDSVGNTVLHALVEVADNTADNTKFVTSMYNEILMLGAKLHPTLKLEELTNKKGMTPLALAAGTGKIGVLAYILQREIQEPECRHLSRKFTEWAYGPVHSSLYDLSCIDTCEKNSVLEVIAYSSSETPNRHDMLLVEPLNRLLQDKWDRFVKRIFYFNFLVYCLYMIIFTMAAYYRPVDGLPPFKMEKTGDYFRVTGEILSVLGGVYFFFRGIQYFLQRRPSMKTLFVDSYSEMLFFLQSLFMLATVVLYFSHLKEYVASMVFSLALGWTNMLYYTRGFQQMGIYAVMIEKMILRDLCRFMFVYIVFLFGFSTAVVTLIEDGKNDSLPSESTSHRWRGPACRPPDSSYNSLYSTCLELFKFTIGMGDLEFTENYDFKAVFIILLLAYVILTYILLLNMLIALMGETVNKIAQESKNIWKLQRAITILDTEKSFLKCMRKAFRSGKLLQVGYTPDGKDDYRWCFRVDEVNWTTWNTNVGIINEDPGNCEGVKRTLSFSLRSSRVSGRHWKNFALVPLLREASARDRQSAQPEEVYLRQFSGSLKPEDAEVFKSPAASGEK

[4] = molecular target: T2, Transient receptor potential cation channel subfamily A member 1; assay: Antagonist activity at TRPA1 (unknown origin) expressed in HEK293T cells assessed as inhibition of agonist induced channel current by whole-cell patch clamp analysis; assay type: cell-based
[5] = molecular target: T2, Transient receptor potential cation channel subfamily A member 1; assay: Agonist activity at TRPA1 (unknown origin)
[6] = molecular target: T4, Transient receptor potential cation channel subfamily A member 1 (Mus musculus, UniProt Q8BLA8); assay: Agonist activity at full length mouse TRPA1 transfected in HEK293F cells assessed as increase in Ca2+ influx by FLIPR calcium assay; assay type: cell-based
T4 sequence (Q8BLA8 whole entry): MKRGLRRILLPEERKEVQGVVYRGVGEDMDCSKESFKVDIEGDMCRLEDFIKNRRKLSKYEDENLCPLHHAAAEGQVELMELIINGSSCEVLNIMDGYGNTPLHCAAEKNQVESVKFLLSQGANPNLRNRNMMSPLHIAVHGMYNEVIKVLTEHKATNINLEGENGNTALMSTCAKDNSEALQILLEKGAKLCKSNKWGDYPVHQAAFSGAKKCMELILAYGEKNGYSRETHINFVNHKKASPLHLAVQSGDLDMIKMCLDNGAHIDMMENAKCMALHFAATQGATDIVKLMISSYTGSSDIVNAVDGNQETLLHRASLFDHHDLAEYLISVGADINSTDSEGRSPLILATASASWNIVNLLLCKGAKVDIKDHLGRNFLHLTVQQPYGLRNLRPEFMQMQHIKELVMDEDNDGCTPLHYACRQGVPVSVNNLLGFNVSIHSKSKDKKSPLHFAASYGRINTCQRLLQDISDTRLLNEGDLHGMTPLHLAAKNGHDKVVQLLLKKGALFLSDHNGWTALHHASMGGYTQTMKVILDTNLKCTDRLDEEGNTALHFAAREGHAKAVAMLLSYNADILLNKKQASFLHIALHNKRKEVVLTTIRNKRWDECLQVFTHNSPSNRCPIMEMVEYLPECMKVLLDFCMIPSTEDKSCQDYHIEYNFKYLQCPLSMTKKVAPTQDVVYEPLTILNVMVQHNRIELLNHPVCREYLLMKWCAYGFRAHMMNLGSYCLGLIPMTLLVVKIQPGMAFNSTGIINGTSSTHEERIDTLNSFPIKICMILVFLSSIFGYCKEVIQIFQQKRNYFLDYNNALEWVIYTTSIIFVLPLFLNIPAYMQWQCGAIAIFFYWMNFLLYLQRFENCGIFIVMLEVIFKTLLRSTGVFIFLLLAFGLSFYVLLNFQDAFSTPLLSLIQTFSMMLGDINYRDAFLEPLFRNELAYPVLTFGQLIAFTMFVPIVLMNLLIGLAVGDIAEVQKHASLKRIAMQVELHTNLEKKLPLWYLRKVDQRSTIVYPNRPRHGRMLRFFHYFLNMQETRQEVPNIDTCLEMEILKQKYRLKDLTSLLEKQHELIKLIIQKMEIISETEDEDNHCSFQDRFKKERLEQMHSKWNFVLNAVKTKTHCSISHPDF

[7] = molecular target: T2, Transient receptor potential cation channel subfamily A member 1; assay: Inhibition of TRPA1 (unknown origin)
[8] = molecular target: T1, Transient receptor potential cation channel subfamily A member 1; assay: Agonist activity at rat TRPA1 transfected in HEK293F cells assessed as increase in Ca2+ influx by FLIPR calcium assay; assay type: cell-based
[9] = molecular target: T3, Transient receptor potential cation channel subfamily V member 1; assay: Agonist activity at human recombinant TRPV1 over expressed in HEK293 cells assessed as increase in intracellular calcium level by measuring efficacy by Fluo4-AM based assay; assay type: cell-based
[10] = molecular target: T4, Transient receptor potential cation channel subfamily A member 1; assay: Antagonist activity at mouse TRPA1 expressed in HEK293F cells as increase in Ca2+ influx by FLIPR calcium assay; assay type: cell-based

T1 sequence (Q6RI86 whole entry): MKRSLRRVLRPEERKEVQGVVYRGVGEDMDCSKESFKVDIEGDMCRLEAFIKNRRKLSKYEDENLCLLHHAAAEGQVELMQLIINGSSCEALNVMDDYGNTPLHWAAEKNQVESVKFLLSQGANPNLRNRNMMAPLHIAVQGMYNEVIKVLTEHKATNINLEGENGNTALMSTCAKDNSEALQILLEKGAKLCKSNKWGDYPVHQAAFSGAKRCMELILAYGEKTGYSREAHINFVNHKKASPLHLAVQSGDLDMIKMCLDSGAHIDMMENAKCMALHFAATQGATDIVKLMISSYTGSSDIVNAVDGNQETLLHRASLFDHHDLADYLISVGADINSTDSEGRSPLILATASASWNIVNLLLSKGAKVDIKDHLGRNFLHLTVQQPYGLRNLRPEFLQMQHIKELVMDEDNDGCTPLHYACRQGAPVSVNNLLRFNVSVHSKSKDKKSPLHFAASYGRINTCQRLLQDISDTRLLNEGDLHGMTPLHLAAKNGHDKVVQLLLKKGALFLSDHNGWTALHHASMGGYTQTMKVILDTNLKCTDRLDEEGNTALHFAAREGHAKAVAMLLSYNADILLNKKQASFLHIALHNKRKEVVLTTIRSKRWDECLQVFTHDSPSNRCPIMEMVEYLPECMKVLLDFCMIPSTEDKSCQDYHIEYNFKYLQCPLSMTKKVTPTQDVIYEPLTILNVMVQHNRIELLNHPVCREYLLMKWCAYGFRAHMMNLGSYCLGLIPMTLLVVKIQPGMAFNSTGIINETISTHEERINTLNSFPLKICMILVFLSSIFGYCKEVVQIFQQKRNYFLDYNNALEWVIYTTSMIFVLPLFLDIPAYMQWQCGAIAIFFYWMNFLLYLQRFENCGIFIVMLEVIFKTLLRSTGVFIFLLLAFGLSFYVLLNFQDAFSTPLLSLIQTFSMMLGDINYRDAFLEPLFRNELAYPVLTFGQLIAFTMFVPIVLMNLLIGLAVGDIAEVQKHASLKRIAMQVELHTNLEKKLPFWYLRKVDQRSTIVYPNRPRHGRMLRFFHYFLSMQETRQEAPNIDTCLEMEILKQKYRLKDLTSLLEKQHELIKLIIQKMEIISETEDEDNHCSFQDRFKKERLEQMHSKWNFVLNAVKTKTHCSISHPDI

## CC(C)CN1C(=O)/C(=C/C(=O)O)c2cccc(F)c21
[1]
  IC50: 0.51 µM

## O=NN1[C@@H]2c3ccccc3[C@H]1[C@@H](C(F)(F)F)C2C(F)(F)F (stereo partly specified)
[2]
  EC50: 5.63 µM

## CC(C)c1cc(CCC(=O)CC(O)Cc2ccccc2)cc(C(C)C)c1O (stereo unspecified)
[3]
  IC50: > 50 µM

## O=C(CCc1ccc2c(c1)OCO2)CC(O)CCCCCCc1ccccc1 (stereo unspecified)
[3]
  IC50: > 10 µM

## O=C(CCc1ccccc1)CC(O)CCCCCCc1ccccc1 (stereo unspecified)
[3]
  IC50: > 10 µM

## C[n+]1cc2c3c(ccc2c2ccc4cc5c(cc4c21)OCO5)OCO3
[4]
  EC50: 0.09 µM

## COCCCN(C(=O)CCl)c1nc(-c2ccc(OC)cc2)cs1
[5]
  EC50: 0.00065 µM

## O=C(O)CCCCCCCCCO
[6]
  EC50: 510 µM

## O=C(CCc1ccccc1)CC(O)Cc1ccccc1 (stereo unspecified)
[7]
  IC50: 4.5 µM
[3]
  IC50: > 50 µM

## Cn1cnc2ncn(Cc3nc([C@@H]4CO[C@@H](c5ccc(F)cc5)C4)no3)c(=O)c21
[8]
  IC50: 0.007 µM

## O=C(O)/C=C/CCCCCCCO
[6]
  EC50: 422 µM

## C[C@@H](N)[C@@H](O)C/C=C\C/C=C\C/C=C\C/C=C\C/C=C\C/C=C\CCCCCC[C@H](O)[C@@H](C)N [LEUCETTAMOL A]
[9]
  EC50: 3.7 µM

## CCC/C=C1\OC(=O)C2=C1CCC=C2 [LIGUSTILIDE]
[10]
  EC50: 44 µM

## O=C1C[C@@H](c2ccc(O[C@@H]3O[C@H](CO)[C@@H](O)[C@H](O)[C@H]3O)cc2)Oc2cc(O)ccc21 [LIQUIRITIN]
[7]
  IC50: 16.2 µM

## CCC/C=C1\OC(=O)c2ccccc21 [Z-butylidenephthalide]
[6]
  EC50: 539 µM
